PubChem BioAssay (NCI)
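Compound exposure: 48 hours, 5 concentrations, 96-well plates. GI50 is the concentration that inhibits growth by half. At the TGI there is no net growth.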

Experiments:
Test in all cases: inhibition of tumour cell growth, NCI panel, 48 h
NCI-H226 lung = system: NCI-H226 lung
NCI-H23 lung = system: NCI-H23 lung
NCI-H460 lung = system: NCI-H460 lung
NCI-H522 lung = system: NCI-H522 lung
NCI/ADR-RES ovarian = system: NCI/ADR-RES ovarian
OVCAR-4 ovarian = system: OVCAR-4 ovarian
OVCAR-5 ovarian = system: OVCAR-5 ovarian
OVCAR-8 ovarian = system: OVCAR-8 ovarian
PC-3 prostate = system: PC-3 prostate
RPMI-8226 leukemia = system: RPMI-8226 leukemia
RXF 393 renal = system: RXF 393 renal
SF-268 CNS = system: SF-268 CNS
SF-295 CNS = system: SF-295 CNS
SF-539 CNS = system: SF-539 CNS
SK-MEL-2 melanoma = system: SK-MEL-2 melanoma
SK-MEL-28 melanoma = system: SK-MEL-28 melanoma
SK-MEL-5 melanoma = system: SK-MEL-5 melanoma
SK-OV-3 ovarian = system: SK-OV-3 ovarian
SN12C renal = system: SN12C renal
SNB-19 CNS = system: SNB-19 CNS
SNB-75 CNS = system: SNB-75 CNS
SR leukemia = system: SR leukemia
SW-620 colon = system: SW-620 colon
T-47D breast = system: T-47D breast
TK-10 renal = system: TK-10 renal
U251 CNS = system: U251 CNS
UACC-257 melanoma = system: UACC-257 melanoma
UACC-62 melanoma = system: UACC-62 melanoma
UO-31 renal = system: UO-31 renal

`COc1ccc(Cn2cc3c(c2-c2cc(OC)c(OC)c(OC)c2)CCc2c(CN4CCOCC4)noc2-3)cc1` gave a TGI (NCI-H226 lung) greater than 100 µM, a GI50 (NCI-H23 lung) of 1.85 µM and a TGI (NCI-H23 lung) greater than 100 µM. For the same compound, the GI50 (NCI-H460 lung) was 0.506 µM, the TGI (NCI-H460 lung) was greater than 100 µM and the GI50 (NCI-H522 lung) was 0.269 µM. The TGI (NCI-H522 lung) was 0.816 µM, the GI50 (NCI/ADR-RES ovarian) was 0.45 µM and the TGI (NCI/ADR-RES ovarian) was greater than 100 µM. For the same compound, the GI50 (OVCAR-4 ovarian) was 18.6 µM, the TGI (OVCAR-4 ovarian) was greater than 100 µM and the GI50 (OVCAR-5 ovarian) was 3.22 µM. The TGI (OVCAR-5 ovarian) was greater than 100 µM, the GI50 (OVCAR-8 ovarian) was 1.8 µM and the TGI (OVCAR-8 ovarian) was greater than 100 µM. For the same compound, the GI50 (PC-3 prostate) was 0.55 µM, the TGI (PC-3 prostate) was greater than 100 µM and the GI50 (RPMI-8226 leukemia) was 1.16 µM. It also gave a TGI (RPMI-8226 leukemia) greater than 100 µM, a GI50 (RXF 393 renal) of 0.382 µM and a TGI (RXF 393 renal) greater than 100 µM. It also gave a GI50 (SF-268 CNS) of 0.87 µM, a TGI (SF-268 CNS) greater than 100 µM and a GI50 (SF-295 CNS) of 0.426 µM. The TGI (SF-295 CNS) was greater than 100 µM, the GI50 (SF-539 CNS) was 0.448 µM and the TGI (SF-539 CNS) was greater than 100 µM. For the same compound, the GI50 (SK-MEL-2 melanoma) was 0.549 µM, the TGI (SK-MEL-2 melanoma) was greater than 100 µM and the GI50 (SK-MEL-28 melanoma) was greater than 47.7 µM. It also gave a TGI (SK-MEL-28 melanoma) greater than 100 µM, a GI50 (SK-MEL-5 melanoma) of 1.15 µM and a TGI (SK-MEL-5 melanoma) of 14.3 µM. The GI50 (SK-OV-3 ovarian) was 1.47 µM, the TGI (SK-OV-3 ovarian) was greater than 100 µM and the GI50 (SN12C renal) was 3.67 µM. For the same compound, the TGI (SN12C renal) was greater than 100 µM, the GI50 (SNB-19 CNS) was 1.15 µM and the TGI (SNB-19 CNS) was greater than 100 µM. It also gave a GI50 (SNB-75 CNS) of 0.308 µM, a TGI (SNB-75 CNS) greater than 100 µM and a GI50 (SR leukemia) of 0.35 µM. It also gave a TGI (SR leukemia) greater than 100 µM, a GI50 (SW-620 colon) of 0.458 µM and a TGI (SW-620 colon) greater than 100 µM. For the same compound, the TGI (T-47D breast) was greater than 100 µM, the GI50 (TK-10 renal) was greater than 100 µM and the TGI (TK-10 renal) was greater than 100 µM. For the same compound, the GI50 (U251 CNS) was 0.779 µM, the TGI (U251 CNS) was greater than 100 µM and the GI50 (UACC-257 melanoma) was 0.963 µM. For the same compound, the TGI (UACC-257 melanoma) was greater than 100 µM, the GI50 (UACC-62 melanoma) was 0.488 µM and the TGI (UACC-62 melanoma) was greater than 100 µM. For the same compound, the GI50 (UO-31 renal) was 0.674 µM and the TGI (UO-31 renal) was greater than 100 µM.
